ChEMBL document CHEMBL3507680, “University of Dundee, Gates Library screen for HepG2 cell viability”
“And” between values parts separate entries of the source, which are not always exact repeats. Equal values may be shown once.

Tests used:
[1] = Human HepG2 cell viability dose-response assay; assay type: toxicity, cell-based
[2] = Human HepG2 cell viability assay in 384 well format; assay type: toxicity, cell-based; design: dose 125 nL, time 70.5 hour; concentration not given beside the values; conditions: HepG2 cells, read-out: Inhibition

Compound	BOTTOM [1]	HILLSLOPE [1]	TOP [1]	pXC50 [1]	cytotoxicity at 70.5 h [2] [%]
O=C(Nc1nccs1)c1csc(NC2CCCC2)n1	-10.16 and -7.056	0.9548 and 1.411	100	4.822 and 4.869	62
c1ccc(OCC2CC3(CCN(CC4CCOCC4)CC3)CO2)nc1 (stereo not drawn)	0	0	0	< 4.53	62.9
CCn1cc(CN(C)S(=O)(=O)c2ccc(Cl)cc2)cn1	0	0	0	< 4.53	108
c1ccc(CCN2CCCC2c2cccc(Nc3nccs3)n2)cc1 (stereo not drawn)	-11.18 and -9.985	1.416 and 1.359	100	5.661 and 5.625	70.3
Cc1cnc(Nc2cccc(C3CCCN3Cc3cn(C)nc3C)n2)s1 (stereo not drawn)	-7.108 and -9.894	1.821 and 1.15	87.64 and 100	5.777 and 5.662	76
Oc1cc(C2CCCN(Cc3cccs3)C2)nc(-c2ccccn2)n1 (stereo not drawn)	-7.306 and -6.343	1.489 and 1.356	100	4.83 and 4.808	60.4
Cn1nccc1CN1CCOC(c2cccc(Nc3ccccn3)n2)C1 (stereo not drawn)		6.527 and 3.177	100.3 and 104.2	5.026 and 5.036	84.1
Cc1ccccc1CN1CCCC1c1cccc(Nc2nccs2)n1 (stereo not drawn)	-34.71 and -42.55	0.815 and 0.7597	100	6.34 and 6.398	70.5
Oc1cc(C2CCCCN2Cc2cccs2)nc(-c2ccccn2)n1 (stereo not drawn)	-3.23 and -7.213	1.278 and 1.267	100	5.076 and 5.09	64.3
CNc1cc(C2CN(Cc3scnc3C)CCO2)nc(C)n1 (stereo not drawn)		1.929 and 1.812	107.3 and 109.8	4.988 and 5.003	98.7
CCc1ncc2c(n1)CN(Cc1ncc(C(C)(C)C)o1)CC2	0	0	0	< 4.53	60.9
CN(CCC(F)(F)F)C(=O)C1CSCN1C(=O)C(C)(C)C (stereo not drawn)	0	0	0	< 4.53	100
NC(CC1CCCC1)c1ccc(Oc2ccccc2)cc1 (stereo not drawn)	-5.453 and -5.719	5.268 and 5.002	102.6 and 103.1	5.226 and 5.224	99
O=C(CN1CCc2sccc2C1)Nc1ccnc2ccnn12	-24.28 and -16.58	0.9799 and 1.026	100	5.87 and 5.888	74.2
CNc1nc(C)cc(NCc2cc(C)cc3c(C)c(C)[nH]c23)n1	-7.457 and -8.772	3.23 and 3.681	100 and 99.18	5.482 and 5.451	98.8
CC(C)(C)c1nccc(C2(c3ccccc3Cl)CCNCC2)n1	9.625 and 4.047	4.667 and 5.549	104.8 and 103.4	5.031 and 5.028	78.4
N#Cc1ccc(NCCNc2ccc(C(F)(F)F)cn2)nc1	-5.895 and -10.21	4.246 and 4.413	101.3 and 101.1	5.913 and 5.918	101
CC(C)Cc1ccc(S(=O)(=O)Nc2ccc(=O)n(C)c2)cc1	0	0	0	< 4.53	71.6
Cl.Cn1ccnc1N1CCN(C(=O)Cc2ccc(F)cc2)CC1	0	0	0	< 4.53	75
COc1ccc(C)cc1CN1CCC(c2cc3ncccc3cn2)CC1.Cl	-3.004 and -4.306	10.96 and 6.205	101.8 and 102.1	5.072 and 5.187	105
Cl.Cl.Clc1cccc(C[C@@H]2NCCC[C@@H]2Nc2ccccc2)c1	-6.539 and -3.827	13.96 and 17.86	101.8	5.306 and 5.329	104
O=C(O)C(F)(F)F.O=C1COC2(CCN(CC3CCC3)CC2)CN1c1cncnc1	0	0	0	< 4.53	61.5
